Experimental data taken from patent US8232584B2 (priority 2005, dated 2012).
Read-outs that look alike come from different tables or passages of the source.

Legend:
[1] = system: Ab2, monoclonal antibody receptor cross reactive to f-PSA and PSA-ACT; format: binding
[2] = format: binding; conditions: CT 5 ng/ml; PSA 100 ng/ml; BSA 10 microgram/ml; phosphate buffer pH 6.7
[3] = system: monoclonal antibodies for PSA (Ab1); format: binding
[4] = format: binding; conditions: BT 5 ng/ml; PSA 100 ng/ml; BSA 10 microgram/ml; phosphate buffer pH 6.7
[5] = f-PSA 1700 pg/ml, p-type silicon nanowire

Substance	Conductance Change NW2-Ab2 ([1]; PSA-ACT 0.32 pg/ml)	Conductance Change NW2-Ab2 ([1]; PSA-ACT 3.2 pg/ml)	Conductance Change NW2-Ab2 ([1]; PSA-ACT 320 pg/ml)	Conductance Change NW2-Ab2 ([1]; PSA-ACT 3200 pg/ml)	Conductance Change NW2-Ab2 ([1]; f-PSA 0.085 pg/ml)	Conductance Change NW2-Ab2 ([1]; f-PSA 0.85 pg/ml)	Conductance Change NW2-Ab2 ([1]; f-PSA 8.5 pg/ml)	Conductance Change NW2-Ab2 ([1]; f-PSA 850 pg/ml)	Conductance Change NW2-Ab2 [1, 5]	conductance response to injection [2]	Conductance Change NW1-Ab1 ([3]; f-PSA 0.085 pg/ml)	Conductance Change NW1-Ab1 ([3]; f-PSA 0.85 pg/ml)	Conductance Change NW1-Ab1 ([3]; f-PSA 8.5 pg/ml)	Conductance Change NW1-Ab1 ([3]; f-PSA 850 pg/ml)	Conductance Change NW1-Ab1 [3, 5]	conductance response to injection [4]
PSA-ACT: PSA-alpha-1-antichymotrypsin complex, cancer marker	19 nS	67 nS	124 nS	143 nS	–	–	–	–	–	–	–	–	–	–	–	–
f-PSA: free prostate specific antigen, cancer marker protein, purchased from Calbiochem	–	–	–	–	10 nS	50 nS	81 nS	132 nS	154 nS	no response was observed	15 nS	45 nS	98 nS	185 nS	192 nS	no response was observed
